In PubChem BioAssay AID248 (DTP/NCI, 2004):
Several values for one entry are separate records, joined by “and”; a condition that tells them apart may be missing. Identical values can stand only once. Inconclusive results and toxic doses are left out. Cut-off read from the data, not from the text of the source: active = T/C of 150% or more; inactive = T/C below 125%.

System: L1210 leukemia ip in BDF1 mice, survival T/C
Test: NCI In Vivo Anticancer Drug Screen. Data for tumor model L1210 Leukemia (intraperitoneal) in B6D2F1 (BDF1) mice
Settings: endpoint: mean survival time, higher = longer survival
Outline: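 Mice bearing the transplanted tumor received compound or vehicle. Survival of the treated group was divided by that of the vehicle-treated control group to give the ratio.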

[1] = dose: 100.0 mg/kg/injection, schedule: Q04DX003 (ip), vehicle: saline with Tween-80
[2] = dose: 100.0 mg/kg/injection, schedule: Q04DX002 (ip), vehicle: Klucel (hydroxypropylcellulose) (HPC)
[3] = dose: 200.0 mg/kg/injection, schedule: Q04DX002 (ip), vehicle: Klucel (hydroxypropylcellulose) (HPC)
[4] = dose: 400.0 mg/kg/injection, schedule: Q04DX002 (ip), vehicle: Klucel (hydroxypropylcellulose) (HPC)
[5] = dose: 100.0 mg/kg/injection, schedule: Q01DX009 (ip), vehicle: saline with Tween-80

Measured: T/C

O=C(Nc1ccc(Nc2ccccc2)cc1)Nc1ccc(F)c(Cl)c1
inactive: dose: 100.0 mg/kg/injection, schedule: Q04DX003 (ip), vehicle: Klucel (hydroxypropylcellulose) (HPC) 92 % of control | dose: 200.0 mg/kg/injection, schedule: Q04DX003 (ip), vehicle: Klucel (hydroxypropylcellulose) (HPC) 94 % of control | dose: 400.0 mg/kg/injection, schedule: Q04DX003 (ip), vehicle: Klucel (hydroxypropylcellulose) (HPC) 94 % of control

Cc1ccc(S(=O)(=O)NC(Cc2ccccc2)C(=O)CCl)cc1 (centres undefined)
inactive: [1] 92 % of control | dose: 200.0 mg/kg/injection, schedule: Q04DX003 (ip), vehicle: saline with Tween-80 92 % of control

Clc1ccc(Oc2nc3c(Cl)cccc3s2)cc1Cl
inactive: [2] 101 % of control | [3] 101 % of control | [4] 97 % of control

CC/C(=N/OC(=O)N(C)C)c1ccccc1
inactive: dose: 100.0 mg/kg/injection, schedule: Q01DX001 (ip), vehicle: saline 96 % of control | dose: 200.0 mg/kg/injection, schedule: Q01DX001 (ip), vehicle: saline 100 % of control | dose: 400.0 mg/kg/injection, schedule: Q01DX001 (ip), vehicle: saline 104 % of control

CC(CO)(CI)[n+]1ccccc1 (centres undefined)
inactive: dose: 25.0 mg/kg/injection, schedule: Q01DX009 (ip), vehicle: saline with Tween-80 100 % of control | dose: 50.0 mg/kg/injection, schedule: Q01DX009 (ip), vehicle: saline with Tween-80 94 % of control | [5] 103 % of control | [1] 106 % of control

COC1OC2COc3ccccc3OC2C2C1N2C(C)=O (centres undefined)
inactive: [2] 113 % of control | [3] 98 % of control

Cc1c(C#N)c2n(c1C)CCN2
inactive: dose: 25.0 mg/kg/injection, schedule: Q01DX009 (ip), vehicle: Klucel (hydroxypropylcellulose) (HPC) 105 % of control | dose: 50.0 mg/kg/injection, schedule: Q01DX009 (ip), vehicle: Klucel (hydroxypropylcellulose) (HPC) 97 % of control | dose: 100.0 mg/kg/injection, schedule: Q01DX001 (ip), vehicle: Klucel (hydroxypropylcellulose) (HPC) 91 % of control | dose: 100.0 mg/kg/injection, schedule: Q01DX009 (ip), vehicle: Klucel (hydroxypropylcellulose) (HPC) 94 % of control

CC1CNC(=S)N1 (centres undefined)
inactive: [2] 106 % of control | [3] 103 % of control | [4] 106 % of control

COc1cc2c(cc1OC)C(OC)N(C)c1c-2ccc2cc(OC)c(OC)cc12 (centres undefined)
inactive: dose: 100.0 mg/kg/injection, schedule: Q01DX009 (ip), vehicle: water 110 % of control | dose: 100.0 mg/kg/injection, schedule: Q04DX003 (ip), vehicle: water 103 % of control | dose: 200.0 mg/kg/injection, schedule: Q04DX003 (ip), vehicle: water 115 % of control | dose: 400.0 mg/kg/injection, schedule: Q01DX009 (ip), vehicle: water 104 % of control and 122 % of control | dose: 400.0 mg/kg/injection, schedule: Q04DX003 (ip), vehicle: water 113 % of control

C1CCN(c2c3c(nc4nnnn24)CCC3)CC1
inactive: dose: 5.0 mg/kg/injection, schedule: Q01DX001 (ip), vehicle: other 98 % of control | dose: 10.0 mg/kg/injection, schedule: Q01DX001 (ip), vehicle: other 96 % of control | dose: 20.0 mg/kg/injection, schedule: Q01DX001 (ip), vehicle: other 98 % of control | dose: 40.0 mg/kg/injection, schedule: Q01DX001 (ip), vehicle: other 110 % of control | dose: 80.0 mg/kg/injection, schedule: Q01DX001 (ip), vehicle: other 96 % of control | dose: 100.0 mg/kg/injection, schedule: Q01DX001 (ip), vehicle: other 96 % of control | dose: 200.0 mg/kg/injection, schedule: Q01DX001 (ip), vehicle: other 96 % of control

COc1ccc(NC(=O)Nc2ccc(NC(C)=O)cc2)cc1
inactive: [5] 86 % of control | dose: 200.0 mg/kg/injection, schedule: Q01DX009 (ip), vehicle: saline with Tween-80 92 % of control

CCCCCCCCCCCCC(CC(=O)O)C(=O)N(C)CC(O)C(O)C(O)C(O)CO (centres undefined)
inactive: dose: 50.0 mg/kg/injection, schedule: Q01DX009 (ip), vehicle: saline 106 % of control | dose: 100.0 mg/kg/injection, schedule: Q01DX009 (ip), vehicle: saline 100 % of control | dose: 200.0 mg/kg/injection, schedule: Q01DX009 (ip), vehicle: saline 110 % of control

COc1ccc(C(SCC(NC(=O)OCc2ccccc2)C(=O)O)c2ccc(OC)cc2)cc1 (centres undefined)
inactive: dose: 75.0 mg/kg/injection, schedule: Q01DX001 (ip), vehicle: carboxymethylcellulose (CMC) 91 % of control | dose: 150.0 mg/kg/injection, schedule: Q01DX001 (ip), vehicle: carboxymethylcellulose (CMC) 91 % of control | dose: 300.0 mg/kg/injection, schedule: Q01DX001 (ip), vehicle: carboxymethylcellulose (CMC) 89 % of control
